Experimental data from US20230365566A1, “HETEROCYCLIC AMIDES AND THEIR USE FOR MODULATING SPLICING” (REMIX THERAPEUTICS INC., priority 2020, published 2023).

Assays:
Format in all cases: cell-based
SMN2 CJ mRNA = test: Gene panel canonical junction qPCR assay, SMN2; conditions: protocol of Example 42, read-out: SMN2 IC50 (decrease in CJ mRNA levels)
Experimental: (§1) Compounds described herein were used to modulate RNA transcript abundance in cells. The expression of a target mRNA was measured by detecting the formation of an exon-exon junction in the canonical transcript (CJ). A compound mediated exon-inclusion event was detected by observing an increase in formation of a new junction with an alternative exon (AJ). Real-time qPCR assays were used to detect these splicing switches and interrogate the potency of various compounds towards different target genes. A high-throughput real time quantitative PCR (RT-qPCR) assay was developed to measure these two isoforms of the mRNA (CJ and AJ) for an exemplary gene, HTT, together with a control housekeeping gene, GAPDH or GUSB or PPIA, used for normalization. Briefly, the A673 or K562 cell line was treated with various compounds described herein (e.g., compounds of Formula (I)). After treatment, the levels of the HTT mRNA targets were determined from each sample of cell lysate by cDNA synthesis followed by qPCR.
(§2) The A673 cell line was cultured in DMEM with 10% FBS. Cells were diluted with full growth media and plated in a 96-well plate (15,000 cells in 100 ul media per well). The plate was incubated at 37° C. with 5% CO2 for 24 hours to allow cells to adhere. An 11-point 3-fold serial dilution of the compounds was made in DMSO then diluted in media in an intermediate plate. Compounds were transferred from the intermediate plate to the cell plate with the top dose at a final concentration of 10 uM in the well. Final DMSO concentration was kept at or below 0.25%. The cell plate was returned to the incubator at 37° C. with 5% CO2 for an additional 24 hours.
(§3) The K562 cell line was cultured in IMDM with 10% FBS. For K562, cells were diluted with full growth media and plated in either a 96-well plate (50,000 cells in 50 uL media per well) or a 384-well plate (8,000-40,000 cells in 45 uL media per well). An 11-point 3-fold serial dilution of the compounds were made in DMSO then diluted in media in an intermediate plate. Compound was transferred from the intermediate plate to the cell plate with the top dose at a final concentration of 10 uM in the well. Final DMSO concentration was kept at or below 0.25%. Final volume was 100 uL for 96-well plate and 50 uL for 384-well plate. The cell plate was then placed in an incubator at 37° C. with 5% CO2 for 24 hours.
(§4) The data analysis was performed by first determining the ACt vs the housekeeper gene. This ACt was then normalized against the DMSO control (AACt) and converted to RQ (relative quantification) using the 2^(−ΔΔCt) equation. The RQ were then converted to a percentage response by arbitrarily setting an assay window of 3.5 ΔCt for HTT-CJ and an assay window of 9 ΔCt for HTT-AJ. […] The percentage response was then fitted to the 4 parametric logistic equation to evaluate the concentration dependence of compound treatment. The increase in AJ mRNA is reported as AC50 (compound concentration having 50% response in AJ increase) while the decrease in CJ mRNA levels is reported as IC50 (compound concentration having 50% response in CJ decrease).
(§5) Additional studies were carried out for a larger panel of genes using the protocol provided above. The junction between flanking upstream and downstream exons was used to design canonical junction qPCR assays. At least one of the forward primer, reverse primer or the CY5-labeled 5′ nuclease probe (with 3′ quencher such as ZEN/Iowa Black FQ) was designed to overlap with the exon junction to capture the CJ mRNA transcript. BLAST was used to confirm the specificity of the probeset and parameters such as melting temperature, GC content, amplicon size, and primer dimer formation are considered during their design. Data for the decrease in CJ mRNA levels for three exemplary genes (HTT, SMN2, and Target C) analyzed in this panel are reported as IC50 (compound concentration having 50% response in CJ decrease).

Target C CJ mRNA = test: Gene panel canonical junction qPCR assay, Target C; conditions: protocol of Example 42, read-out: Target C IC50 (decrease in CJ mRNA levels)
Experimental: as §1, §2, §3, §4, §5

[1] = tested on: HTT mRNA alternative junction (AJ); test: Splicing RT-qPCR assay, increase of HTT alternative junction (AJ) mRNA; conditions: A673 or K562 cells, 24 hours compound treatment, concentration having 50% response in AJ increase
Experimental: as §1, §2, §3
(§6) The cells were then gently washed with 50 uL-100 uL cold PBS before proceeding to addition of lysis buffer. 30 uL-50 uL of room temperature lysis buffer with DNAse I (and optionally RNAsin) was added to each well. Cells were shaken/mixed thoroughly at room temperature for 5-10 minutes for lysis to take place and then 3 uL-5 uL of room temperature stop solution was added and wells were shaken/mixed again. After 2-5 minutes, the cell lysate plate was transferred to ice for RT-qPCR reaction setup. The lysates could also be frozen at −80° C. for later use.
(§7) In some cases, a direct lysis buffer was used. An appropriate volume of 3× lysis buffer (10 mM Tris, 150 mM NaCl, 1.5%-2.5% Igepal and 0.1-1 U/uL RNAsin, pH 7.4) was directly added to either K562 or A673 cells in media and mixed by pipetting 3 times. The plates were then incubated at room temperature with shaking/rocking for 20-50 minutes to allow for lysis to take place. After this time, the cell lysate plate was transferred to ice to set up for the RT-qPCR reactions. The lysates could also be frozen at −80° C. for later use.
(§8) To set up 10 uL RT-qPCR reactions, cell lysates were transferred to 384-well qPCR plates containing the master mix according to the table below. The plates were sealed, gently vortexed, and spun down before the run. The volumes were adjusted accordingly in some instances where the reaction was carried in 20 uL. The table below summarizes the components of the RT-qPCR reactions:
(§9) The RT-qPCR reaction was performed using a QuantStudio (ThermoFisher) under the following fast cycling conditions. […]

[2] = tested on: HTT mRNA canonical junction (CJ); test: Splicing RT-qPCR assay, decrease of HTT canonical junction (CJ) mRNA; conditions: A673 or K562 cells, 24 hours compound treatment, concentration having 50% response in CJ decrease
Experimental: as §1, §2, §3, §6, §7, §8, §9

HTT CJ mRNA = test: Gene panel canonical junction qPCR assay, HTT; conditions: protocol of Example 42, read-out: HTT IC50 (decrease in CJ mRNA levels)
Experimental: as §1, §2, §3, §4, §5

IC50 (SMN2 CJ mRNA) | IC50 (Target C CJ mRNA) | IC50 (HTT CJ mRNA) | SMILES | AC50 [1] | AC50 [2]
< 100 nM | 1 to 10 µM | 100 to 1000 nM | CCC1CN(c2ccc(C(=O)Nc3cc(F)c4nc(C)cn4c3)c3nn(C)cc23)CCN1 (centres unmarked) [Compound 239] | 100 to 1000 nM | 100 to 1000 nM
< 100 nM | 1 to 10 µM | 100 to 1000 nM | Cc1cn2cc(NC(=O)c3ccc(N4CCNC(C)(C)C4)c4cn(C)nc34)cc(F)c2n1 [Compound 240] | 100 to 1000 nM | 100 to 1000 nM
< 100 nM | 1 to 10 µM | 1000 to 10000 nM | Cc1cn2cc(NC(=O)c3ccc(N4CCNC5(CC5)C4)c4cn(C)nc34)cc(F)c2n1 [Compound 241] | 1000 to 10000 nM | 1000 to 10000 nM
< 100 nM | 1 to 10 µM | 100 to 1000 nM | Cc1cn2cc(NC(=O)c3ccc(N4CC5(CNC5)C4)c4cn(C)nc34)cc(F)c2n1 [Compound 242] | 1000 to 10000 nM | 100 to 1000 nM
< 100 nM | 1 to 10 µM | 100 to 1000 nM | Cc1cn2cc(NC(=O)c3ccc(N4CC5(CN(C)C5)C4)c4cn(C)nc34)cc(F)c2n1 [Compound 243] | 100 to 1000 nM | 100 to 1000 nM
< 100 nM | > 10 µM | 1000 to 10000 nM | Cc1cn2cc(NC(=O)c3ccc(N4CCNCC4)c4cn(C)nc34)ncc2n1 [Compound 246] | 1000 to 10000 nM | 1000 to 10000 nM
> 10000 nM | > 10 µM | > 10000 nM | Cc1cn2nc(NC(=O)c3ccc(N4CCNCC4)c4cn(C)nc34)cc2c(C)n1 [Compound 247] | > 10000 nM | > 10000 nM
< 100 nM | > 10 µM | > 10000 nM | Cc1cn2cc(NC(=O)c3ccc(N4CCC(NC(C)(C)C)C4)c4cn(C)nc34)cc(F)c2n1 (centres unmarked) [Compound 249] | > 10000 nM | > 10000 nM

Second part, the compound before the results:

SMILES | IC50 (SMN2 CJ mRNA) | IC50 (Target C CJ mRNA) | IC50 (HTT CJ mRNA) | AC50 [1] | AC50 [2]
Cc1cn2cc(NC(=O)c3ccc(C4CCN(C)CC4)c4cn(C)nc34)cc(F)c2n1 [Compound 209, N-[8-fluoro-2-methylimidazo[1,2-a]pyridin-6-yl]-2-methyl-4-(1-methylpiperidin-4-yl)indazole-7-carboxamide] | > 10000 nM | 1 to 10 µM | 100 to 1000 nM | 100 to 1000 nM | 100 to 1000 nM
CCN1CCC(c2ccc(C(=O)Nc3cc(F)c4nc(C)cn4c3)c3nn(C)cc23)CC1 [Compound 210, 4-(1-ethylpiperidin-4-yl)-N-[8-fluoro-2-methylimidazo[1,2-a]pyridin-6-yl]-2-methylindazole-7-carboxamide] | < 100 nM | 1 to 10 µM | 100 to 1000 nM | 100 to 1000 nM | 100 to 1000 nM
Cc1cn2cc(NC(=O)c3ccc(C4C[C@@H](C)N[C@@H](C)C4)c4cn(C)nc34)cc(F)c2n1 (stereo partly drawn) [Compound 211, 4-[(cis-)-2,6-dimethylpiperidin-4-yl]-N-[8-fluoro-2-methylimidazo[1,2-a]pyridin-6-yl]-2-methylindazole-7-carboxamide trifluoroacetic acid] | < 100 nM | > 10 µM | 1000 to 10000 nM | 1000 to 10000 nM | 1000 to 10000 nM
Cc1cn2cc(NC(=O)c3ccc(C4CC(C)(C)NC(C)(C)C4)c4cn(C)nc34)cc(F)c2n1 [Compound 212, N-[8-fluoro-2-methylimidazo[1,2-a]pyridin-6-yl]-2-methyl-4-(2,2,6,6-tetramethylpiperidin-4-yl)indazole-7-carboxamide] | 100 to 1000 nM | > 10 µM | 1000 to 10000 nM | > 10000 nM | 1000 to 10000 nM
Cc1cc2c(N3CCNCC3)ccc(C(=O)Nc3cc(F)c4cn(C)nc4c3)c2o1 [Compound 217, N-(4-fluoro-2-methylindazol-6-yl)-2-methyl-4-(piperazin-1-yl)-1-benzofuran-7-carboxamide] | 1000 to 10000 nM | > 10 µM | 1000 to 10000 nM | 1000 to 10000 nM | 1000 to 10000 nM
Cc1cn2cc(NC(=O)c3ccc(N4CCNC(C)C4)c4cn(C)nc34)cc(F)c2n1 (centres unmarked) [Compound 228] | < 100 nM | 0.1 to 1 µM | 100 to 1000 nM | 100 to 1000 nM | 100 to 1000 nM
Cc1cn2cc(NC(=O)c3ccc(N4CCN(C)C(C)C4)c4cn(C)nc34)cc(F)c2n1 (centres unmarked) [Compound 229] | < 100 nM | 1 to 10 µM | 100 to 1000 nM | 100 to 1000 nM | 100 to 1000 nM
Cn1cc2ccc(NC(=O)c3ccc(N4CCNCC4)c4cn(C)nc34)cc2n1 [Compound 230] | > 10000 nM | > 10 µM | > 10000 nM | > 10000 nM | > 10000 nM
Cn1cc2c(F)cc(NC(=O)c3ccc(N4CCNCC4)c4cn(C)nc34)cc2n1 [Compound 231] | > 10000 nM | > 10 µM | > 10000 nM | > 10000 nM | > 10000 nM
Cc1nc2c(F)cc(NC(=O)c3ccc(N4CCNCC4)c4cn(C)nc34)cc2o1 [Compound 234] | < 100 nM | 1 to 10 µM | 1000 to 10000 nM | 100 to 1000 nM | 1000 to 10000 nM
Cc1nc2c(F)cc(NC(=O)c3ccc(N4CCNCC4)c4cn(C)nc34)cc2s1 [Compound 235] | < 100 nM | > 10 µM | 1000 to 10000 nM | 1000 to 10000 nM | 1000 to 10000 nM
Cc1cn2cc(NC(=O)c3ccc(N4CCNCC4)c4cn(C)nc34)cc(C)c2n1 [Compound 238] | < 100 nM | > 10 µM | 1000 to 10000 nM | 1000 to 10000 nM | 1000 to 10000 nM
Cc1cn2cc(NC(=O)c3ccc(N(C)C4CC(C)(C)NC(C)(C)C4)c4cn(C)nc34)cc(F)c2n1 [Compound 244] | 100 to 1000 nM | > 10 µM | > 10000 nM | > 10000 nM | > 10000 nM
Cc1cn2cc(NC(=O)c3ccc(N(C)C4CCN(C)CC4)c4cn(C)nc34)cc(F)c2n1 [Compound 245] | < 100 nM | 0.1 to 1 µM | 100 to 1000 nM | 100 to 1000 nM | 100 to 1000 nM
